Measured values from ChEMBL document CHEMBL4482323, “Novel heterocyclic compound, method for preparing same, and pharmaceutical composition comprising same as active ingredient for preventing or treating cancer” (2017).

What follows are molecules tested against T1, NEDD8 activating enzyme (Homo sapiens, UniProt Q8TBC4) (assay: Inhibition of NAE (unknown origin) using GST-tagged Ubc12 and Flag-tagged Nedd8 measured after 2 hrs by TR-FRET assay). Conditions: not given.
T1 sequence (Q8TBC4 whole entry): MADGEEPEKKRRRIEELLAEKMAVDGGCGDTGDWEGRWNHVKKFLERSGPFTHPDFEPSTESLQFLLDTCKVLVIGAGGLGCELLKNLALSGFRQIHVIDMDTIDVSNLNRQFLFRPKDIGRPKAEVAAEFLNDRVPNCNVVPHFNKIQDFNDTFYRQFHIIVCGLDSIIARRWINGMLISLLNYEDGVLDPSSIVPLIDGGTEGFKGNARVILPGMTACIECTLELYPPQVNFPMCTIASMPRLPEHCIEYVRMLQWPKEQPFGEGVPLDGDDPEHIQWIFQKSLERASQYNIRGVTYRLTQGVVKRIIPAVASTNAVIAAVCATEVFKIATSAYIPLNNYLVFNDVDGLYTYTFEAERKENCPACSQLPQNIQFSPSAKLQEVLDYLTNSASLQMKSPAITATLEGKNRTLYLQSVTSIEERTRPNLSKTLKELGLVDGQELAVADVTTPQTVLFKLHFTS
T1 sequence (Q13564 whole entry): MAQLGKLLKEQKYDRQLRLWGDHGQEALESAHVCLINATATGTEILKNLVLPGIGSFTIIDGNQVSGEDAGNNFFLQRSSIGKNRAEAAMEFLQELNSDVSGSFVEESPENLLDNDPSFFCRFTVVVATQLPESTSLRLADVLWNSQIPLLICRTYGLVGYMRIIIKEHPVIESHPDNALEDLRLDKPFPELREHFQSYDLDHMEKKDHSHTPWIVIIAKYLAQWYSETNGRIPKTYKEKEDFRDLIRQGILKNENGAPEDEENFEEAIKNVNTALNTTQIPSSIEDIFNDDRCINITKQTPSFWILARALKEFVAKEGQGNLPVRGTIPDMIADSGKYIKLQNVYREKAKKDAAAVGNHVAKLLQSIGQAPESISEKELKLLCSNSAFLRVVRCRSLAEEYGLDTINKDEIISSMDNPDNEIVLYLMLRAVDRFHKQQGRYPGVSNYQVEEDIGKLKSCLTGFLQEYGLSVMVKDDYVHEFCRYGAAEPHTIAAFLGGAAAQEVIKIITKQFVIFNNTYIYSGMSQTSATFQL
Assay type: protein-complex assay

Question: How did the IC50 turn out when `NS(=O)(=O)OC[C@H]1C[C@@H](Nc2ncncc2C(=O)c2cn(Cc3ccc(F)cc3F)c3ccccc23)[C@H](O)[C@@H]1O` was run?
Answer: Its IC50 is 8 nM.

The molecules below were run on HCT-116 (assay: Antiproliferative activity against human HCT116 cells after 48 hrs by CCK8 assay). Conditions: HCT-116, 48 h, read-out: LD50 (the source's name).
Assay type: functional

Question: `N#Cc1cccc(Cn2cc(C(=O)c3cncnc3N[C@@H]3C[C@H](COS(N)(=O)=O)[C@@H](O)[C@H]3O)c3ccccc32)c1` was tested. Which CC50 did it give?
Answer: The CC50 was 15100 nM.

Question: For `NS(=O)(=O)OC[C@H]1C[C@@H](Nc2ncncc2C(=O)c2cn(Cc3ccc(C(F)(F)F)o3)c3ccccc23)[C@H](O)[C@@H]1O`, which CC50 is on record?
Answer: Its CC50 is 2010 nM.

Question: Which CC50 does the source give for `NS(=O)(=O)OC[C@H]1C[C@@H](Nc2ncncc2C(=O)c2cn(Cc3ccccc3F)c3ccccc23)[C@H](O)[C@@H]1O` here?
Answer: Its CC50 is 3120 nM.

Question: How did the CC50 turn out when `NS(=O)(=O)OC[C@H]1C[C@@H](Nc2ncncc2C(=O)c2cn(Cc3cccc(Br)c3)c3ncccc23)[C@H](O)[C@@H]1O` was run?
Answer: Its CC50 is 2010 nM.

Question: With `NS(=O)(=O)OC[C@H]1C[C@@H](Nc2ncncc2C(=O)c2cn(Cc3cccc(Br)c3)c3ccccc23)[C@H](O)[C@@H]1O` as the molecule, how does the CC50 read?
Answer: Its CC50 is 934 nM.

Question: `NS(=O)(=O)OC[C@H]1C[C@@H](Nc2ncncc2C(=O)c2cn(Cc3cc(C(F)(F)F)cc(C(F)(F)F)c3)c3ccccc23)[C@H](O)[C@@H]1O` was tested. Which CC50 did it give?
Answer: Its CC50 is 4120 nM.

Question: `NS(=O)(=O)OC[C@H]1C[C@@H](Nc2ncncc2C(=O)c2cn(Cc3ccc(F)cc3F)c3ccccc23)[C@H](O)[C@@H]1O` was tested. Which CC50 did it give?
Answer: Its CC50 is 1480 nM.

Question: For `Cc1cccc(Cn2cc(C(=O)c3cncnc3N[C@@H]3C[C@H](COS(N)(=O)=O)[C@@H](O)[C@H]3O)c3ccccc32)n1`, which CC50 is on record?
Answer: Its CC50 is 413 nM.

Question: `NS(=O)(=O)OC[C@H]1C[C@@H](Nc2ncncc2C(=O)c2cn(Cc3ccc(F)c(Cl)c3)c3ccccc23)[C@H](O)[C@@H]1O` was tested. Which CC50 did it give?
Answer: The CC50 was 1800 nM.

Question: `NS(=O)(=O)OC[C@H]1C[C@@H](Nc2ncncc2C(=O)c2cn(Cc3cccc(I)c3)c3ccccc23)[C@H](O)[C@@H]1O` was tested. Which CC50 did it give?
Answer: The CC50 was 587 nM.

What follows are molecules tested on THP-1 (assay: Antiproliferative activity against human THP1 cells after 48 hrs by CCK8 assay). Conditions: THP-1, 48 h, read-out: LD50 (the source's name).
Assay type: functional

Question: `N#Cc1cccc(Cn2cc(C(=O)c3cncnc3N[C@@H]3C[C@H](COS(N)(=O)=O)[C@@H](O)[C@H]3O)c3ccccc32)c1` was tested. Which CC50 did it give?
Answer: Its CC50 is 13200 nM.

Question: For `NS(=O)(=O)OC[C@H]1C[C@@H](Nc2ncncc2C(=O)c2cn(Cc3ccc(C(F)(F)F)o3)c3ccccc23)[C@H](O)[C@@H]1O`, which CC50 is on record?
Answer: Its CC50 is 813 nM.

Question: For `NS(=O)(=O)OC[C@H]1C[C@@H](Nc2ncncc2C(=O)c2cn(Cc3ccccc3F)c3ccccc23)[C@H](O)[C@@H]1O`, which CC50 is on record?
Answer: The CC50 was 1000 nM.

Question: For `NS(=O)(=O)OC[C@H]1C[C@@H](Nc2ncncc2C(=O)c2cn(Cc3cccc(Br)c3)c3ncccc23)[C@H](O)[C@@H]1O`, which CC50 is on record?
Answer: The CC50 was 813 nM.

Question: With `NS(=O)(=O)OC[C@H]1C[C@@H](Nc2ncncc2C(=O)c2cn(Cc3cccc(Br)c3)c3ccccc23)[C@H](O)[C@@H]1O` as the molecule, how does the CC50 read?
Answer: Its CC50 is 223 nM.

Question: Which CC50 does the source give for `NS(=O)(=O)OC[C@H]1C[C@@H](Nc2ncncc2C(=O)c2cn(Cc3cc(C(F)(F)F)cc(C(F)(F)F)c3)c3ccccc23)[C@H](O)[C@@H]1O` here?
Answer: Its CC50 is 2780 nM.

Question: Which CC50 does the source give for `NS(=O)(=O)OC[C@H]1C[C@@H](Nc2ncncc2C(=O)c2cn(Cc3ccc(F)cc3F)c3ccccc23)[C@H](O)[C@@H]1O` here?
Answer: Its CC50 is 1560 nM.

Question: `Cc1cccc(Cn2cc(C(=O)c3cncnc3N[C@@H]3C[C@H](COS(N)(=O)=O)[C@@H](O)[C@H]3O)c3ccccc32)n1` was tested. Which CC50 did it give?
Answer: Its CC50 is 55.3 nM.

Question: How did the CC50 turn out when `NS(=O)(=O)OC[C@H]1C[C@@H](Nc2ncncc2C(=O)c2cn(Cc3ccc(F)c(Cl)c3)c3ccccc23)[C@H](O)[C@@H]1O` was run?
Answer: The CC50 was 1430 nM.

Question: With `NS(=O)(=O)OC[C@H]1C[C@@H](Nc2ncncc2C(=O)c2cn(Cc3cccc(I)c3)c3ccccc23)[C@H](O)[C@@H]1O` as the molecule, how does the CC50 read?
Answer: The CC50 was 163 nM.

The molecules below were run against SUMO-activating enzyme (Homo sapiens, UniProt Q9UBT2) (assay: Inhibition of SAE (unknown origin) using recombinant His-tagged human SUMO1 measured after 2 hrs by HTRF assay). Conditions: not given.
SUMO-activating enzyme, sequence (Q9UBE0 whole entry): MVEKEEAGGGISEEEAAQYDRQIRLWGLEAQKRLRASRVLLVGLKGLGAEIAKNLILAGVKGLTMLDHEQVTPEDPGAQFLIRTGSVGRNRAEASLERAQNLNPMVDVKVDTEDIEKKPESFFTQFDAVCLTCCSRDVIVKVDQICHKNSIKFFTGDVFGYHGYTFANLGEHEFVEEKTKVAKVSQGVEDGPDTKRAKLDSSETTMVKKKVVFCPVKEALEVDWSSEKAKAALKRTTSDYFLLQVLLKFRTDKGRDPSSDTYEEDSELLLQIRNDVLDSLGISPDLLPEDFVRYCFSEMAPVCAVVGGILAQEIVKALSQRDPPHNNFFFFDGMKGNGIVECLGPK
SUMO-activating enzyme, sequence (Q9UBT2 whole entry): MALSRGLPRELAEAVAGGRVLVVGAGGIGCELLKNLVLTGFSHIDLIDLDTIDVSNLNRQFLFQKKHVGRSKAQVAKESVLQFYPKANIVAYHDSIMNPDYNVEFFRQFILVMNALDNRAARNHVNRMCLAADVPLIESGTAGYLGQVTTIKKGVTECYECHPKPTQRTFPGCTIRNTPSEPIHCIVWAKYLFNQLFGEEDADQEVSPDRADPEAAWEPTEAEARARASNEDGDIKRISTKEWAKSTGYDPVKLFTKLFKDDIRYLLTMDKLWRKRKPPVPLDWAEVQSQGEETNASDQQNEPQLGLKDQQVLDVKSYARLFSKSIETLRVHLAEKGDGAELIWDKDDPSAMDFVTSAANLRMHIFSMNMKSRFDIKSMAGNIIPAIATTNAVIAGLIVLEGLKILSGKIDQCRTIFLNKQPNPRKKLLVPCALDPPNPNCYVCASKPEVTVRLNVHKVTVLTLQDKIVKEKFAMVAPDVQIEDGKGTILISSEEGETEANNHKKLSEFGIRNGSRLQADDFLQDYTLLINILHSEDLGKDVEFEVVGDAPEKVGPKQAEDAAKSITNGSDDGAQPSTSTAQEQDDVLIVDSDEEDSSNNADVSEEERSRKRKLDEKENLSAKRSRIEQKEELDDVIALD
Assay type: protein-complex assay

Question: How did the IC50 turn out when `Cc1cccc(Cn2cc(C(=O)c3cncnc3N[C@@H]3C[C@H](COS(N)(=O)=O)[C@@H](O)[C@H]3O)c3cc(F)ccc32)c1` was run?
Answer: Its IC50 is 680 nM.

Question: Which IC50 does the source give for `NS(=O)(=O)OC[C@H]1C[C@@H](Nc2ncncc2C(=O)c2cn(Cc3ccc(C(F)(F)F)o3)c3ccccc23)[C@H](O)[C@@H]1O` here?
Answer: The IC50 was 1290 nM.

Question: For `NS(=O)(=O)OC[C@H]1C[C@@H](Nc2ncncc2C(=O)c2cn(Cc3ccccc3F)c3ccccc23)[C@H](O)[C@@H]1O`, which IC50 is on record?
Answer: Its IC50 is 2880 nM.

Question: `NS(=O)(=O)OC[C@H]1C[C@@H](Nc2ncncc2C(=O)c2nn(Cc3cccc(Br)c3)c3ccccc23)[C@H](O)[C@@H]1O` was tested. Which IC50 did it give?
Answer: The IC50 was 1700 nM.

Question: Which IC50 does the source give for `NS(=O)(=O)OC[C@H]1C[C@@H](Nc2ncncc2C(=O)c2cn(Cc3cccc(Br)c3)c3ncccc23)[C@H](O)[C@@H]1O` here?
Answer: Its IC50 is 661 nM.

Question: How did the IC50 turn out when `NS(=O)(=O)OC[C@H]1C[C@@H](Nc2ncncc2C(=O)c2cn(CC3CCCCC3)c3ccccc23)[C@H](O)[C@@H]1O` was run?
Answer: Its IC50 is 1650 nM.

Question: `NS(=O)(=O)OC[C@H]1C[C@@H](Nc2ncncc2C(=O)c2cn(Cc3cccc(Br)c3)c3ccccc23)[C@H](O)[C@@H]1O` was tested. Which IC50 did it give?
Answer: Its IC50 is 100 nM.

Question: How did the IC50 turn out when `NS(=O)(=O)OC[C@H]1C[C@@H](Nc2ncncc2C(=O)c2cn(Cc3ccc(F)cc3F)c3ccccc23)[C@H](O)[C@@H]1O` was run?
Answer: Its IC50 is 30 nM.

Question: Which IC50 does the source give for `Cc1cccc(Cn2cc(C(=O)c3cncnc3N[C@@H]3C[C@H](COS(N)(=O)=O)[C@@H](O)[C@H]3O)c3ccccc32)n1` here?
Answer: The IC50 was 2210 nM.

Question: How did the IC50 turn out when `NS(=O)(=O)OC[C@H]1C[C@@H](Nc2ncncc2C(=O)c2cn(Cc3ccccc3)c3ccccc23)[C@@H](F)[C@@H]1O` was run?
Answer: The IC50 was 1840 nM.

Question: For `NS(=O)(=O)OC[C@H]1C[C@@H](Nc2ncncc2C(=O)c2cn(Cc3ccc(F)c(Cl)c3)c3ccccc23)[C@H](O)[C@@H]1O`, which IC50 is on record?
Answer: Its IC50 is 1600 nM.

Question: With `NS(=O)(=O)OC[C@H]1C[C@@H](Nc2ncncc2C(=O)c2cn(Cc3cccc(I)c3)c3ccccc23)[C@H](O)[C@@H]1O` as the molecule, how does the IC50 read?
Answer: The IC50 was 470 nM.

Question: `C/C=C/Cn1cc(C(=O)c2cncnc2NC2C[C@H](COS(N)(=O)=O)[C@@H](O)[C@H]2O)c2ccccc21` (single isomer, unassigned) was tested. Which IC50 did it give?
Answer: Its IC50 is 1860 nM.
